Experimental findings from patent publication US20230087342A1, “AZEPANE DERIVATIVE” (Nippon Chemiphar Co., Ltd., priority 2019, published 2023) are described below.

A short description of one series: Metabolic stability test. The series is classed as in vitro ADME. As to conditions: human liver microsomes, 0 to 30 minutes; a hydrochloride was used. The method, then:
To determine the unchanged product-residual ratio of the test compound in the reaction sample, human liver microsomes and the test compound were reacted for a predetermined time (0 to 30 minutes). The unchanged product-residual ratio at a reaction time of 0 hours was considered 100%, the residual ratio after incubation was log-linear plotted with respect to the time, a regression line (y=100 e^−kt, k=slope of the line: elimination rate constant) was determined, and the metabolic clearance CLint (mL/min/kg) was calculated using the following formula.
CLint*=k (−min)×45 (mg MS protein/g liver)×21 (g liver/kg)/MS protein (mg MS protein/mL)
*: Yamazaki S.; Skaptason J.; Romero D, Vekich S.; Jones HM.; Tan W.; Wilner KD.; Koudriakova T. Drug Metab. Dispos. 2011 March; 39 (3): 383-393.
(Liver microsomes are vesicles of endoplasmic reticulum, rich in cytochrome P450 enzymes.)

The target in the next series is T1, human κ opioid receptors (Homo sapiens, UniProt P41145).
T1 construct: host or cells: CHO cells
T1 sequence (P41145 whole entry): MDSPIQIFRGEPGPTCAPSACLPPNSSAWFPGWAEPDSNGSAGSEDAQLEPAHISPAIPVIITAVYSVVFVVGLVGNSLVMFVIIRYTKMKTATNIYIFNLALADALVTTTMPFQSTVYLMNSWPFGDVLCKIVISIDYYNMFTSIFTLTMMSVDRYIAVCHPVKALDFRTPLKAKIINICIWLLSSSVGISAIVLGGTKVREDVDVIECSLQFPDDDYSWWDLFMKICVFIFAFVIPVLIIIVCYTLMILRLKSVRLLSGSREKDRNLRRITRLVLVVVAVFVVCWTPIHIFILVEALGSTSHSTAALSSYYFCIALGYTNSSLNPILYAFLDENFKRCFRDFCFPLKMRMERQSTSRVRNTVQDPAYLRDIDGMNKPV
As to the kind of experiment: Opioid receptor function test (Lance Ultra cAMP kit, agonist activity). It is filed as cell-based. As to conditions: CHO cells expressing human κ opioid receptors, 10 μM forskolin, 30 minutes. Summed up:
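CHO cells expressing human κ opioid receptor incubated 30 min with test compound (10^−14 to 10^−7 M) and 10 μM forskolin in HSS/5 mM HEPES pH 7.4 with 0.5 mM IBMX and 0.1% SA. cAMP measured by TR-FRET (Lance Ultra) 1 h after detection reagent addition.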

One may read the CLint scaled as the rate of metabolic loss divided by the concentration. Higher therefore signals rapid turnover. What is called EC50 is the concentration needed to bring the measured effect to its halfway point.

For the compound `Cc1cc2c(cc1O)[C@@]13CCN(C(=O)Cc4cccc(C(F)(F)F)n4)CC[C@@]1(O)[C@@H](C2)N(CC1CC1)CC3` [Example 322, 1-((5aS,6R,11bR)-14-(cyclopropylmethyl)-5a,10-dihydroxy-9-methyl-1,2,5,5a,6,7-hexahydro-6,11b-(epiminoethano)naphtho[1,2-d]azepin-3(4H)-yl)-2-(6-(trifluoromethyl)pyridin-2-yl)ethan-1-one], the intrinsic metabolic clearance (CLint scaled) in the series “Metabolic stability test” was 6.6 mL/min/kg. `Cc1cc2c(cc1O)[C@@]13CCN(C(=O)Cc4ccccn4)CC[C@@]1(O)[C@@H](C2)N(CC1CC1)CC3` [Example 291, 1-((5aS,6R,11bR)-14-(cyclopropylmethyl)-5a,10-dihydroxy-9-methyl-1,2,5,5a,6,7-hexahydro-6,11b-(epiminoethano)naphtho[1,2-d]azepin-3(4H)-yl)-2-(pyridin-2-yl)ethan-1-one] showed an EC50 at human κ opioid receptors of 0.55 nM. The same compound had a CLint scaled in the series “Metabolic stability test” of 8 mL/min/kg.

For the compound `Cc1cnn(CCN2CC[C@]34CCN(CC5CC5)[C@H](Cc5cccc(O)c53)[C@]4(O)CC2)c1` [Example 277, (5aS,6R,11bS)-14-(cyclopropylmethyl)-3-(2-(4-methyl-1H-pyrazol-1-yl)ethyl)-2,3,4,5,6,7-hexahydro-6,11b-(epiminoethano)naphtho[1,2-d]azepine-5a,11(1H)-diol], in the series “Metabolic stability test”, the CLint scaled was 6.4 mL/min/kg.

In the case of `O=C(Cc1ncccn1)N1CC[C@]23CCN(CC4CC4)[C@H](Cc4ccc(O)cc42)[C@]3(O)CC1` [Example 20, 1-((5aS,6R,11bR)-14-(cyclopropylmethyl)-5a,10-dihydroxy-1,2,5,5a,6,7-hexahydro-6,11b-(epiminoethano)naphtho[1,2-d]azepin-3(4H)-yl)-2-(pyrimidin-2-yl)ethan-1-one], the CLint scaled in “Metabolic stability test” came to 3.9 mL/min/kg. Consider `CC1C[C@@]2(O)[C@H]3Cc4ccc(O)cc4[C@]2(CCN1C(=O)Cc1ccccn1)CCN3CC1CC1` (stereo partly drawn) [Example 281, 1-((5aS,6R,11bR)-14-(cyclopropylmethyl)-5a,10-dihydroxy-4-methyl-1,2,5,5a,6,7-hexahydro-6,11b-(epiminoethano)naphtho[1,2-d]azepin-3(4H)-yl)-2-(pyridin-2-yl)ethan-1-one], for which, at human κ opioid receptors, it took 0.14 nM to reach a half-maximal effect (EC50). In addition, in “Metabolic stability test”, the CLint scaled stood at 13.7 mL/min/kg. For the compound `Cc1cnn(CCN2CC[C@]34CCN(CC5CC5)[C@H](Cc5cc(C)c(O)cc53)[C@]4(O)CC2)c1` [Example 262, (5aS,6R,11bS)-14-(cyclopropylmethyl)-9-methyl-3-(2-(4-methyl-1H-pyrazol-1-yl)ethyl)-2,3,4,5,6,7-hexahydro-6,11b-(epiminoethano)naphtho[1,2-d]azepine-5a,10(1H)-diol], the midpoint of the response at human κ opioid receptors, the EC50, lay at 0.085 nM. The same compound yielded an intrinsic metabolic clearance (CLint scaled) in the series “Metabolic stability test” of 5.8 mL/min/kg. `Oc1ccc2c(c1)[C@@]13CCN(CCc4nccs4)CC[C@@]1(O)[C@@H](C2)N(CC1CC1)CC3` [Example 31, (5aS,6R,11bS)-14-(cyclopropylmethyl)-3-(2-(thiazol-2-yl)ethyl)-2,3,4,5,6,7-hexahydro-6,11b-(epiminoethano)naphtho[1,2-d]azepine-5a,10(1H)-diol]: the concentration for a half-maximal effect (EC50) at human κ opioid receptors came to 0.11 nM. Moreover, the intrinsic clearance (CLint scaled) in the series “Metabolic stability test” was 7.5 mL/min/kg. The matching figures for `Oc1ccc2c(c1)[C@@]13CCN(CCn4cc(Br)cn4)CC[C@@]1(O)[C@@H](C2)N(CC1CC1)CC3` [Example 61, (5aS,6R,11bS)-3-(2-(4-bromo-1H-pyrazol-1-yl)ethyl)-14-(cyclopropylmethyl)-2,3,4,5,6,7-hexahydro-6,11b-(epiminoethano)naphtho[1,2-d]azepine-5a,10(1H)-diol]: 0.028 nM and 26 mL/min/kg.

With `Cc1cnn(CCN2CC[C@]34CCN(CC5CC5)[C@H](Cc5cc(C(N)=O)c(O)cc53)[C@]4(O)CC2)c1` [Example 295, (5aS,6R,11bS)-14-(cyclopropylmethyl)-5a,10-dihydroxy-3-(2-(4-methyl-1H-pyrazol-1-yl)ethyl)-1,2,3,4,5,5a,6,7-octahydro-6,11b-(epiminoethano)naphtho[1,2-d]azepine-9-carboxamide], the intrinsic metabolic clearance (CLint scaled) in “Metabolic stability test” amounted to 17.2 mL/min/kg. As for `Cc1cnn(CCN2CC[C@]34CCN(CC5CC5)[C@H](Cc5cc(I)c(O)cc53)[C@]4(O)CC2)c1` [Example 298, (5aS,6R,11bS)-14-(cyclopropylmethyl)-9-iodo-3-(2-(4-methyl-1H-pyrazol-1-yl)ethyl)-2,3,4,5,6,7-hexahydro-6,11b-(epiminoethano)naphtho[1,2-d]azepine-5a,10(1H)-diol], the CLint scaled in “Metabolic stability test” is 22.5 mL/min/kg. The compound `NC(=O)c1ccc2c(c1)[C@@]13CCN(C(=O)Cc4ccccn4)CC[C@@]1(O)[C@@H](C2)N(CC1CC1)CC3` [Example 247, (5aS,6R,11bR)-14-(cyclopropylmethyl)-5a-hydroxy-3-(2-(pyridin-2-yl)acetyl)-1,2,3,4,5,5a,6,7-octahydro-6,11b-(epiminoethano)naphtho[1,2-d]azepine-10-carboxamide] gave a CLint scaled in the series “Metabolic stability test” of 4.8 mL/min/kg.

As for `Oc1ccc2c(c1)[C@@]13CCN(CCc4ccccc4)CC[C@@]1(O)[C@@H](C2)N(CC1CC1)CC3` [Example 90, (5aS,6R,11bS)-14-(cyclopropylmethyl)-3-phenethyl-2,3,4,5,6,7-hexahydro-6,11b-(epiminoethano)naphtho[1,2-d]azepine-5a,10(1H)-diol], the EC50 on human κ opioid receptors is 0.87 nM. In addition, the CLint scaled in the series “Metabolic stability test” was found to be 11.6 mL/min/kg. On to `NC(=O)c1ccc2c(c1O)[C@@]13CCN(C(=O)Cc4ccccn4)CC[C@@]1(O)[C@@H](C2)N(CC1CC1)CC3` [Example 353, (5aS,6R,11bR)-14-(cyclopropylmethyl)-5a,11-dihydroxy-3-(2-(pyridin-2-yl)acetyl)-1,2,3,4,5,5a,6,7-octahydro-6,11b-(epiminoethano)naphtho[1,2-d]azepine-10-carboxamide], for which, in the series “Metabolic stability test”, the intrinsic metabolic clearance (CLint scaled) is 7.9 mL/min/kg. The compound `Cc1cnn(CCN2CC[C@]34CCN[C@H](Cc5ccc(O)cc53)[C@]4(O)CC2)c1` [Example 176, (5aS,6R,11bR)-3-(2-(4-methyl-1H-pyrazol-1-yl)ethyl)-2,3,4,5,6,7-hexahydro-6,11b-(epiminoethano)naphtho[1,2-d]azepine-5a,10(1H)-diol] displayed an intrinsic clearance (CLint scaled) in “Metabolic stability test” of 8.2 mL/min/kg. Turning to `O=C(Cc1ccccn1)N1CC[C@]23CCN(CC4CC4)[C@H](Cc4cc(C(F)(F)F)c(O)cc42)[C@]3(O)CC1` [Example 320, 1-((5aS,6R,11bR)-14-(cyclopropylmethyl)-5a,10-dihydroxy-9-(trifluoromethyl)-1,2,5,5a,6,7-hexahydro-6,11b-(epiminoethano)naphtho[1,2-d]azepin-3(4H)-yl)-2-(pyridin-2-yl)ethan-1-one], the CLint scaled in the series “Metabolic stability test” turned out to be 22.9 mL/min/kg. As for `O=C(Cc1ncccn1)N1CCC[C@@]2(O)[C@H]3Cc4ccc(O)cc4[C@@]2(CCN3CC2CC2)C1` [Example 139, 1-((5aS,6R,11bS)-14-(cyclopropylmethyl)-5a,10-dihydroxy-3,4,5,5a,6,7-hexahydro-6,11b-(epiminoethano)naphtho[1,2-c]azepin-2(1H)-yl)-2-(pyrimidin-2-yl)ethan-1-one], the intrinsic clearance (CLint scaled) in the series “Metabolic stability test” was 29.7 mL/min/kg.

For `Cc1cnn(CCN2CC[C@]34CCN(CC5CC5(F)F)[C@H](Cc5ccc(O)cc53)[C@]4(O)CC2)c1` (stereo partly drawn) [Example 218, (5aS,6R,11bS)-14-((2,2-difluorocyclopropyl)methyl)-3-(2-(4-methyl-1H-pyrazol-1-yl)ethyl)-2,3,4,5,6,7-hexahydro-6,11b-(epiminoethano)naphtho[1,2-d]azepine-5a,10(1H)-diol], the midpoint of the response at human κ opioid receptors, the EC50, lay at 0.16 nM. Consider `Oc1ccc2c(c1)[C@@]13CCN(CCc4n[nH]c5ccccc45)CC[C@@]1(O)[C@@H](C2)N(CC1CC1)CC3` [Example 112, (5aS,6R,11bS)-3-(2-(1H-indazol-3-yl)ethyl)-14-(cyclopropylmethyl)-2,3,4,5,6,7-hexahydro-6,11b-(epiminoethano)naphtho[1,2-d]azepine-5a,10(1H)-diol], for which the half-maximal effective concentration (EC50) on human κ opioid receptors is 0.037 nM.

`Cc1cc(CC(=O)N2CC[C@]34CCN(CC5CC5)[C@H](Cc5ccc(O)cc53)[C@]4(O)CC2)ns1` [Example 168, 1-((5aS,6R,11bR)-14-(cyclopropylmethyl)-5a,10-dihydroxy-1,2,5,5a,6,7-hexahydro-6,11b-(epiminoethano)naphtho[1,2-d]azepin-3(4H)-yl)-2-(5-methylisothiazol-3-yl)ethan-1-one] had a half-maximal effective concentration (EC50) on human κ opioid receptors of 0.047 nM. In turn, `Oc1ccc2c(c1)[C@@]13CCN(CCc4ccsn4)CC[C@@]1(O)[C@@H](C2)N(CC1CC1)CC3` [Example 209, (5aS,6R,11bS)-14-(cyclopropylmethyl)-3-(2-(isothiazol-3-yl)ethyl)-2,3,4,5,6,7-hexahydro-6,11b-(epiminoethano)naphtho[1,2-d]azepine-5a,10(1H)-diol] registered an EC50 at human κ opioid receptors of 0.05 nM.

The compound `O=C(Cc1n[nH]c2ccccc12)N1CC[C@]23CCN(CC4CC4)[C@H](Cc4ccc(O)cc42)[C@]3(O)CC1` [Example 114, 1-((5aS,6R,11bR)-14-(cyclopropylmethyl)-5a,10-dihydroxy-1,2,5,5a,6,7-hexahydro-6,11b-(epiminoethano)naphtho[1,2-d]azepin-3(4H)-yl)-2-(1H-indazol-3-yl)ethan-1-one] registered a half-maximal effective concentration (EC50) at human κ opioid receptors of 0.043 nM. With `Cc1cnn(CCC(=O)N2CC[C@]34CCN(CC5CC5)[C@H](Cc5ccc(O)cc53)[C@]4(O)CC2)c1` [Example 220, 1-((5aS,6R,11bR)-14-(cyclopropylmethyl)-5a,10-dihydroxy-1,2,5,5a,6,7-hexahydro-6,11b-(epiminoethano)naphtho[1,2-d]azepin-3(4H)-yl)-3-(4-methyl-1H-pyrazol-1-yl)propan-1-one], the response on human κ opioid receptors was half-maximal at 0.26 nM (EC50).
